Where two headings read alike, the source gives them in different places. One block for each molecule: values may come before it. Where a SMILES comes first, the peptide text is derived from it. Bridges are numbered along the chain shown (N, C = ends).
Legend:
chymotrypsin [1] = molecular target: T1, chymotrypsin (Bos taurus, UniProt P00766); assay: Inhibition of chymotrypsin, residual activity with GPNA substrate; assay type: biochemical; conditions: pH 7.6, from fitted inhibition curves (GRAFIT), read-out: Inhibition constant Ki against chymotrypsin
Method: (§1) The inhibitory activities of BTCI, PepTry and PepChy against trypsin and chymotrypsin activities were assayed using the substrates Na-benzoyl-DL-arginine-p-nitroanilide (BAPNA) and n-glutaryl-L-phenylalanine-p-nitroanilide (GPNA), respectively (Sigma)[19],[39]. Enzymatic assays were performed in 50 mM Tris-HCl, CaCl2 20 mM pH 7.6 for chymotrypsin or pH 8.2 for trypsin. Forty μL of BTCI and PepTry (0 to 20 μM) and BTCI and PepChy (0 to 50 μM) were incubated with 40 μL of trypsin (2.57 µM) or chymotrypsin (28.60 µM), respectively, in a 96-well plate at room temperature for 15 minutes. Then, 200 μL BAPNA (0.064 mg/mL) or GPNA (0.8 mg/mL) were added. The reaction was stopped by addition of 30 μL 30% acetic acid (v/v). Enzymatic hydrolysis of the substrate was evaluated by recording the absorbance at 410 nm. The residual activities of the enzymes, in the presence of inhibitors, were estimated considering the free enzyme activity to be 100%. Inhibition constants of the enzyme-inhibitor complexes, Ki, were calculated from fitted inhibition curves[70] using the GRAFIT program version 3 (Erithacus Software, Horley, Surrey, United Kingdom).

[2] = molecular target: T2, angiotensin converting enzyme (ACE) (Oryctolagus cuniculus, UniProt P12822); assay: ACE inhibition assay with HHL substrate (Hayakari method); assay type: biochemical; conditions: rabbit lung ACE; for inhibition at 100 µM: pH 8.3, read-out: Highest ACE-inhibitory value; for IC50: sodium phosphate pH 8.3, 37 °C, 10 min pre-incubation, 45 min reaction, absorbance 382 nm, non-linear fit, triplicate, read-out: IC50 against ACE
T2 construct: ACE stock solution was obtained from rabbit lung; from tissue; host or cells: rabbit lung
T2 sequence (P12822 34-1310): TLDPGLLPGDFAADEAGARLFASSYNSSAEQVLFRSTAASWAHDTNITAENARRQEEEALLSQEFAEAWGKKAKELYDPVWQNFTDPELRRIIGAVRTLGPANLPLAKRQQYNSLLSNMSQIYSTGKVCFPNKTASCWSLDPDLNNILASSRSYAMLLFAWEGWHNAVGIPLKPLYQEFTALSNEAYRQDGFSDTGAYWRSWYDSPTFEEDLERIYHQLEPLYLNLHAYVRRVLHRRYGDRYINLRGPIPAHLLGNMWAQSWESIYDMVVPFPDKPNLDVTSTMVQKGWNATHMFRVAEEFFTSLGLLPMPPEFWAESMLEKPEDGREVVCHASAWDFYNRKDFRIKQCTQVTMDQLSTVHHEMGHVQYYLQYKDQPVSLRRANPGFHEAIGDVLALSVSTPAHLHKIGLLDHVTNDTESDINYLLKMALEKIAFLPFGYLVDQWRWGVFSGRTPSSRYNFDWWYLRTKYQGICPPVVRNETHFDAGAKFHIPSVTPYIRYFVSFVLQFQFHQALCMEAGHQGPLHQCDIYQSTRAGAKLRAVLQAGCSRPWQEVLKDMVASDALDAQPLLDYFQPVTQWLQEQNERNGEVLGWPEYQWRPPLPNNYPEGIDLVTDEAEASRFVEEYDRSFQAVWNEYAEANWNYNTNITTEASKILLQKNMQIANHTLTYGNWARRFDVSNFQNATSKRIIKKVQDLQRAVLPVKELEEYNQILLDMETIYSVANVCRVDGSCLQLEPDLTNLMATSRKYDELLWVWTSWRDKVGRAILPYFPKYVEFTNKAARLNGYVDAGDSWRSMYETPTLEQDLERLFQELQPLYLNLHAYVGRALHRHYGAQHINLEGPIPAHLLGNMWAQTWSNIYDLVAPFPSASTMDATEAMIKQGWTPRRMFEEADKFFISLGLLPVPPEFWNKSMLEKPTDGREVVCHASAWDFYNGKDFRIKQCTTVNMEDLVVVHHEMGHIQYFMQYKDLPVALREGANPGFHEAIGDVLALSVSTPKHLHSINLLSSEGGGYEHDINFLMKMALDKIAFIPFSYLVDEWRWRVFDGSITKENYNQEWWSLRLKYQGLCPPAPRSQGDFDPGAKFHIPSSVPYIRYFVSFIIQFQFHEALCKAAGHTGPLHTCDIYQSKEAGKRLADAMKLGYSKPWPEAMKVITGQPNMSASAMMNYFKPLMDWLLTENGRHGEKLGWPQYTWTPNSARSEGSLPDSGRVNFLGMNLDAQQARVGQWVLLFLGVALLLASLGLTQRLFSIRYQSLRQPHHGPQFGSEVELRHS
Method: Inhibitory activities of peptides PepTry and PepChy and BTCI against ACE were performed according to Hayakari, et al. (1978) using the synthetic substrate hippuryl-L-histidyl-L-leucine (HHL)[71]. Briefly, ACE stock solution was obtained from rabbit lung in 10 mM sodium phosphate buffer, pH 8.3, and BTCI and peptides stock solutions were prepared in MilliQ water (m/v). Concentration of BTCI was estimated from spectrophotometric absorbance at 280 nm based A2801% = 8.23. Concentration of PepTry and PepChy were estimated according to Eq. 1. BTCI and peptides were diluted in 10 mM sodium phosphate buffer pH 8.3 to obtain concentrations ranging from 0 to 600 µM. Ten µL peptide solutions were pre-incubated with 10 µL of ACE containing 0.5 M NaCl at 37 °C for 10 min. […] The enzymatic reaction was terminated by adding a mixture containing 550 µL of 100 mM sodium phosphate pH 8.3 and 332.5 µL of 3% (m/v) 2,4,6-trichloro-s-triazine (TT) (in dioxane). The mixture was incubated for 5 min. at room temperature and then centrifuged at 1000 g for 10 min at 4 °C. The absorbance values of supernatants containing hippuric acid liberated from HHL were recorded at 382 nm using the Jasco Spectrophotometer V-530 (Jasco Analytical Instruments, Tokyo, Japan). IC50 values for peptides and BTCI were calculated from nonlinear regression curve of ACE residual activity (%) versus inhibitor concentration (µM) (BTCI, PepTry and PepChy) using Origin software (OriginLab Corporation, USA). The control was prepared containing only the substrate without enzyme solution. Assays were performed in triplicate.

trypsin [3] = molecular target: T3, trypsin (Bos taurus, UniProt P00760); assay: Inhibition of trypsin, residual activity with BAPNA substrate; assay type: biochemical; conditions: pH 8.2, from fitted inhibition curves (GRAFIT), read-out: Inhibition constant Ki against trypsin
T3 sequence (P00760 24-246): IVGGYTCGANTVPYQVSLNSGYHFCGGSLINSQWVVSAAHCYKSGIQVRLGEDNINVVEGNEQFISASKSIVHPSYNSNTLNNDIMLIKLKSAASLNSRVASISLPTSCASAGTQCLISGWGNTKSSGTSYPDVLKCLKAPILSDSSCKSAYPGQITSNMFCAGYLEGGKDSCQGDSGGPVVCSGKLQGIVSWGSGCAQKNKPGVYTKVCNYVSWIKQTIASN
Method: as §1

chymotrypsin [4] = molecular target: T1, chymotrypsin; conditions: literature value; read-out: Inhibition constant Ki against chymotrypsin; cited from earlier work
Method: (§2) The inhibitory activities of BTCI and its derived peptides, PepTry and PepChy, were evaluated through the residual enzymatic activity of serine proteases trypsin and chymotrypsin in the presence of increasing concentrations of BTCI and its derived peptides (Fig. 2A–D). In the absence of BTCI and peptides, the proteases cleave BAPNA/GPNA substrates releasing the yellow-colored p-nitroanilide product corresponding to an enzymatic activity of 100%[39]. In the presence of BTCI and peptides, a gradual decay of the protease activities is observed. BTCI at approximately 6 µM and 40 µM inhibits trypsi ...

trypsin [5] = molecular target: T3, trypsin; conditions: literature value; read-out: Inhibition constant Ki against trypsin; cited from earlier work
Method: as §2

Molecule: BTCI: Bowman-Birk protease inhibitor purified from Vigna unguiculata (Cowpea) seeds; small protein, 9071 Da, seven disulfide bonds
Ki (chymotrypsin [4]): 0.115 µM

B1: BTCI: Bowman-Birk protease inhibitor purified from Vigna unguiculata (Cowpea) seeds; small protein, 9071 Da, seven disulfide bonds (protein)
chain: SGHHEDSTDEASESSKPCCDRCECTKSIPPQCRCSDVRLNSCHSACKSCACTFSIPAQCFCGDINDFCYKPCKSSHSDDDDWN
modifications: seven intramolecular disulfide bonds; native protein purified from seeds (9071.6 Da)
Ki (trypsin [5]): 0.0059 µM
IC50 [2]: 54.6 ± 2.9 µM

Continued by falling IC50 [2], values first:

Ki (chymotrypsin [1]): 121 µM
inhibition at 100 µM [2]: ~98%
IC50 [2]: 24.7 ± 1.1 µM
Molecule: CC[C@H](C)[C@@H]1NC(=O)[C@H](CO)NC(=O)[C@H](Cc2ccccc2)NC(=O)[C@H]([C@@H](C)O)NC(=O)[C@@H](N)CSSC[C@@H](C(=O)O)NC(=O)[C@H](CCC(N)=O)NC(=O)[C@H](C)NC(=O)[C@@H]2CCCN2C1=O [PepChy] (H-CTFSIPAQC-OH; disulfide 1-9)

inhibition at 100 µM [2]: ~98%
IC50 [2]: 24.4 ± 1.1 µM
Ki (trypsin [3]): 0.119 µM
Molecule: CC[C@H](C)[C@@H]1NC(=O)[C@H](CO)NC(=O)[C@H](CCCCN)NC(=O)[C@H]([C@@H](C)O)NC(=O)[C@@H](N)CSSC[C@@H](C(=O)O)NC(=O)[C@H](CCC(N)=O)NC(=O)[C@@H]2CCCN2C(=O)[C@@H]2CCCN2C1=O [PepTry] (H-CTKSIPPQC-OH; disulfide 1-9)

From paper PMC7363796, “Blood pressure-lowering effects of a Bowman-Birk inhibitor and its derived peptides in normotensive and hypertensive rats” (Scientific Reports, 2020)
